Measured values: the NIST ThermoML archive (doi:10.1016/j.fluid.2011.08.009)
± gives the expanded uncertainty stated by the source.

Settings: Liquid, Closed cell (Static) method

Compound | vapor or sublimation pressure (329.22 K) | vapor or sublimation pressure (342.18 K) | vapor or sublimation pressure (352.68 K) | vapor or sublimation pressure (313.17 K) | vapor or sublimation pressure (342.83 K) | vapor or sublimation pressure (323.18 K)
CCCCCC [hexane] | 65.63 ± 0.67 kPa |  |  |  |  | 
CCCCCCCCCCCC [dodecane] |  | 0.36 ± 0.1 kPa | 0.75 ± 0.1 kPa |  |  | 
CCCO [propan-1-ol] |  |  | 49.8 ± 0.4 kPa | 6.99 ± 0.19 kPa | 31.45 ± 0.24 kPa | 
O [water] |  |  |  | 7.36 ± 0.14 kPa | 30.65 ± 0.22 kPa | 12.18 ± 0.19 kPa
CCC(C)O (stereo not drawn) [butan-2-ol] | 14.55 ± 0.21 kPa |  | 44.66 ± 0.35 kPa |  | 28.43 ± 0.28 kPa | 10.74 ± 0.16 kPa
